For one assay, the target named is T1, Full-length human MNK1 (Homo sapiens, UniProt Q9BUB5, T385D).
T1 construct: GST (N); purchased Carna Biosciences 02-145; host or cells: baculovirus expression system
As to the kind of experiment: MNK1 biochemical IC50 assay (Caliper Mobility Shift Assay). The conditions noted are these: read-out: P(IC50) MNK1 (converted).

The target of another assay is T2, Full-length human MNK2 (Homo sapiens, UniProt Q9HBH9, T379D).
T2 construct: GST (N); purchased Carna Biosciences 02-146; host or cells: baculovirus expression system
T2 sequence (Q9HBH9 whole entry T379D): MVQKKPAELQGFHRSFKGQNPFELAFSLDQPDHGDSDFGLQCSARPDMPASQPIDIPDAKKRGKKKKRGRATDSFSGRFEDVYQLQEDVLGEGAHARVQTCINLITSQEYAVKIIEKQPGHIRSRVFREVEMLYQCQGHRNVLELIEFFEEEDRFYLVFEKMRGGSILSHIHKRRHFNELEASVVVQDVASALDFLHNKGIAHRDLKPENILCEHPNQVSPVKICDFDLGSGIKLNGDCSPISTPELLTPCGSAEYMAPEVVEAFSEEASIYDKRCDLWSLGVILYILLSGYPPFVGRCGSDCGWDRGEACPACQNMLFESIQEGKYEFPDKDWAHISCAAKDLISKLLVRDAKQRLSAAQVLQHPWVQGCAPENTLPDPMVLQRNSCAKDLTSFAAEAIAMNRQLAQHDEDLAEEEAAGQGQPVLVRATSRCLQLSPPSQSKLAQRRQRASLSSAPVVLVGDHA
The assay can be described thus: MNK2 biochemical IC50 assay (Caliper Mobility Shift Assay). The conditions noted are these: read-out: P(IC50) MNK2 (converted).

Assay [1] concerns phosphorylation of eIF4E at ser209 in MV4.11 cell line. The assay can be described thus: MNK cellular activity phospho-eIF4E detection assay (Alphascreen Surefire). It is filed as cell-based. The conditions noted are these: Homo sapiens; MV4.11 cell line, phospho-eIF4E (ser209) Alphascreen Surefire; read-out: P(IC50) elF4E (converted). A digest of the protocol: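 AlphaScreen SureFire sandwich-immunoassay readout of phospho-eIF4E Ser209 in lysed MV4.11 cells; acceptor then donor beads, each 1.5 hr at room temperature. Signal normalised to untreated DMSO-only controls; duplicate curves, values averaged over at least 2 independent experiments.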

SMILES strings stand for the structures.

T1 sequence (Q9BUB5 1-424 isoform Q9BUB5-2 T344D): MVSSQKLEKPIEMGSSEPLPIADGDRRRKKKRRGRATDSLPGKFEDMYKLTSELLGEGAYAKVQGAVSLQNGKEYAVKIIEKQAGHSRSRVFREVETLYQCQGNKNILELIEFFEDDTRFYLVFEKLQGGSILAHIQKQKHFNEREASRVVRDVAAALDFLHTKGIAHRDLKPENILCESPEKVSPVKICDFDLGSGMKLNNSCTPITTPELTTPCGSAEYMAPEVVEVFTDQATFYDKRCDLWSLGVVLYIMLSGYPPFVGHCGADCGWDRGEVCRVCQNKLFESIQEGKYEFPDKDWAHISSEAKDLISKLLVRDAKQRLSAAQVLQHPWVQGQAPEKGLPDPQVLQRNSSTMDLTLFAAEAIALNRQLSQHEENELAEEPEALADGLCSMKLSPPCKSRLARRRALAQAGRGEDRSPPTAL

Take `CC(C)CCNC(=O)c1nc2c(N3CC(CCN)c4ccccc43)ncnc2s1` (stereo not drawn) [Example 165, 7-[3-(2-aminoethyl)indolin-1-yl]-N-isopentyl-thiazolo[5,4-d]pyrimidine-2-carboxamide]: the IC50 was 10 nM on Full-length human MNK1, 10 nM on Full-length human MNK2 and 15.8 nM in assay [1].
For the compound `CN(C)Cc1cn(-c2ncnc3sc(C(=O)NC4CCOCC4)nc23)c2ccccc12` [Example 121, 7-[3-[(dimethylamino)methyl]indol-1-yl]-N-tetrahydropyran-4-yl-thiazolo[5,4-d]pyrimidine-2-carboxamide], the results for the IC50 (at Full-length human MNK1; on Full-length human MNK2; in assay [1]) were 39.8 nM, 79.4 nM and 79.4 nM, respectively.
As for `O=C(NCC1CCNCC1)c1nc2c(Nc3ccc(F)cc3OC(CF)CF)ncnc2s1` [Example 52, 7-[4-fluoro-2-[2-fluoro-1-(fluoromethyl)ethoxy]anilino]-N-(4-piperidylmethyl)thiazolo[5,4-d]pyrimidine-2-carboxamide], the half-maximal inhibitory concentration (IC50) at Full-length human MNK1 was 63.1 nM; at Full-length human MNK2 it was 63.1 nM; in assay [1] it was 100 nM.
Turning to `O=C(NCC1CCNCC1)c1nc2c(Nc3ccc(F)cc3OC3CCCC3)ncnc2s1` [Example 51, 7-[2-(cyclopentoxy)-4-fluoro-anilino]-N-(4-piperidylmethyl)thiazolo[5,4-d]pyrimidine-2-carboxamide], the IC50 on Full-length human MNK1 was 126 nM; on Full-length human MNK2, 100 nM; in assay [1], 126 nM.
Take `CC1(C)CN(c2ncnc3sc(C(=O)NCCCN4CCCC4)nc23)c2ccccc21` [Example 160]: the values for the 50% inhibitory concentration (IC50) (on Full-length human MNK1; on Full-length human MNK2; in assay [1]) were 6.31 nM, 6.31 nM and 7.94 nM, respectively.
For the compound `O=C(Nc1ccc(Nc2ncnc3sc(C(=O)NCC4CCNCC4)nc23)cc1)Nc1cccc(C(F)(F)F)c1` [Example 49, N-(4-piperidylmethyl)-7-[4-[[3-(trifluoromethyl)phenyl]carbamoylamino]anilino]thiazolo[5,4-d]pyrimidine-2-carboxamide], the half-maximal inhibitory concentration (IC50) was 158 nM on Full-length human MNK1, 63.1 nM on Full-length human MNK2 and 79.4 nM in assay [1].
For the compound `CC(C)Oc1cc(F)ccc1Nc1ncnc2sc(C(=O)NCCC(=O)O)nc12` [Example 14, 3-[[7-(4-fluoro-2-isopropoxy-anilino)thiazolo[5,4-d]pyrimidine-2-carbonyl]amino]propanoic acid], the IC50 on Full-length human MNK1 is 158 nM; at Full-length human MNK2 it was 79.4 nM; in assay [1] it was 398 nM.
For `CC(C)Oc1cc(F)ccc1Nc1ncnc2sc(C(=O)NCCCN3CCCC3)nc12` [Example 13, 7-(4-fluoro-2-isopropoxy-anilino)-N-(3-pyrrolidin-1-ylpropyl)thiazolo[5,4-d]pyrimidine-2-carboxamide], in that order: 50.1 nM, 39.8 nM and 39.8 nM.
In the case of `O=C(NC1CCOCC1)c1nc2c(N3CC4(CCCC4)c4ccccc43)ncnc2s1` [Example 41, 7-(Spiro[cyclopentane-1,3′-indol]-1′(2′H)-yl)-N-(tetrahydro-2H-pyran-4-yl)[1,3]thiazolo[5,4-d]pyrimidine-2-carboxamide], the IC50 is 25.1 nM at Full-length human MNK1, 12.6 nM on Full-length human MNK2 and 20 nM in assay [1].
Take `CN(C)CCCNC(=O)c1nc2c(N3CCc4cccc(F)c43)ncnc2s1` [Example 92, N-[3-(dimethylamino)propyl]-7-(7-fluoroindolin-1-yl)thiazolo[5,4-d]pyrimidine-2-carboxamide]: the IC50 on Full-length human MNK1 was 158 nM; on Full-length human MNK2, 126 nM; in assay [1], 251 nM.
Turning to `CC1(C)CN(C(=O)c2nc3c(N4CCc5ccccc54)ncnc3s2)CCO1` [Example 102, (2,2-dimethylmorpholin-4-yl)-(7-indolin-1-ylthiazolo[5,4-d]pyrimidin-2-yl)methanone], the IC50 was 158 nM on Full-length human MNK1, 200 nM on Full-length human MNK2 and 631 nM in assay [1].
For `CC1Cc2ccccc2N1c1ncnc2sc(C(=O)NCCCN(C)C)nc12` (stereo not drawn) [Example 124], in that order: 25.1 nM, 20 nM and 31.6 nM.

The values above are taken from US10669284B2, “Fused thiazolopyrimidine derivatives as MNKS inhibitors” (LIFEARC, priority 2015, dated 2020).
